From patent EP1056700B1, “MEDICINAL USES OF PHENYLALKANOLS AND DERIVATES” (ZingoTX Pty Ltd, priority 1997, dated 1999)

Assays:
[1] = dogs, 0.3 mg / kg, i.v.; cited from earlier work
[2] = system: brine shrimp (Artemia salina Leach); assay: Brine shrimp toxicity bioassay; type: in vivo; settings: result in words
5-lipoxygenase = target: T1, 5-lipoxygenase (Rattus norvegicus, UniProt P12527); assay: 5-lipoxygenase assay (MDS PANLABS), RBL-1 cells, 5-HETE radioimmunoassay; type: biochemical; settings: arachidonic acid as substrate
T1 construct: 5-lipoxygenase activity from rat basophilic leukemia cells (RBL-1); host or cells: RBL-1 (rat basophilic leukemia)
Description: 3-hydroxy-1-(4-hydroxy-3-methoxyphenyl)dodecane [3.93] was tested at MDS PANLABS: Pharmacology Services (Taiwan) for 5-lipoxygenase activity from rat basophilic leukemia cells (RBL-1) with arachidonic acid as substrate. The inhibitory activity of the substance was quantitated, using radioimmunoassay, from the formation of 5-HETE. At 10 µM, the substance gave approximate 90% inhibition of 5-lipoxygenase activity.

[3] = Acute toxicity in mice for 3 days; type: in vivo
Excerpt: However, no toxicity was shown towards mice for dose by the oral route. […] Brine shrimp toxicity for gingerols and gingerol analogues tested ranged from low to moderate.

T1 sequence (P12527 whole entry): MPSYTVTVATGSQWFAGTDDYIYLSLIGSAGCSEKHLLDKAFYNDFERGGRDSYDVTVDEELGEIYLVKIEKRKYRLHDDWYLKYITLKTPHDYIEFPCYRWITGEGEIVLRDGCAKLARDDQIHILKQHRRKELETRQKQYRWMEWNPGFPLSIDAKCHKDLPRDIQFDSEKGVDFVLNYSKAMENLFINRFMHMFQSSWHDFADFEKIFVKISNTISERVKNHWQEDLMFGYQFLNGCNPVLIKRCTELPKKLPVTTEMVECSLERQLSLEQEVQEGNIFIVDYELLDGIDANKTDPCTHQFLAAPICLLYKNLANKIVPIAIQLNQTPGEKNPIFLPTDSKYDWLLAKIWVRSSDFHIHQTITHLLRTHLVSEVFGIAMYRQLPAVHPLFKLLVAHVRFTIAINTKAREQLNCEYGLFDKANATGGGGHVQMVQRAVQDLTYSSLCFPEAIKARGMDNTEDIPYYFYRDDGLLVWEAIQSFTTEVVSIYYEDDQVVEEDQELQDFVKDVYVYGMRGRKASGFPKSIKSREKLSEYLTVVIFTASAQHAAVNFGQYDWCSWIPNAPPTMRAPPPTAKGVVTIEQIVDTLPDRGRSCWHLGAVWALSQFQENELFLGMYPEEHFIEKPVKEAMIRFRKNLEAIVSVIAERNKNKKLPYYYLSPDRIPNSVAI

Question: For CCCCCCCC(O)CC(=O)CCc1ccc(O)c(OC)c1 (stereo not drawn) [[8]-gingerol, 5-hydroxy-1-(4-hydroxy-3-methoxyphenyl)dodecan-3-one, reference compound], which “duration of increased cardiac contractility” value [1] is on record?
Answer: 10 min

Question: What about the increased cardiac contractility [1] of the same compound?
Answer: about 30%

Question: Which “toxicity towards brine shrimp” value [2] does the source give for CCCCCCCCCC(O)CCc1ccc(O)c(OC)c1 (stereo not drawn) [1-(4-hydroxy-3-methoxyphenyl)dodecan-3-ol] here?
Answer: low toxicity

Question: And the inhibition at 10 µM (5-lipoxygenase)?
Answer: ~90%

Question: And the Acute toxicity ([3]; mice, 3 days, intraperitoneal administration)?
Answer: slight decrease in spontaneous activity, response to touch and limb tone

Question: What about the Acute toxicity ([3]; mouse, in vivo, po) of the same compound?
Answer: no toxicity
